Consider 16 compounds from patent US20070021419A1, “2-Aminophenyl-4-phenylpyrimidines as kinase inhibitors” (Cyclacel Limited, priority 2003, published 2007).

The target of experiment [1] is CDK4/cyclin D1 (Homo sapiens, UniProt P11802). In words: Kinase assay, radioactive phosphate incorporation, CDK4/cyclin D1. The format is biochemical. The settings on record: 100 μM ATP, 30° C.; read-out: Kinase inhibition IC50 CDK4/cyclin D1. The protocol: (§1) The compounds from the examples above were investigated for their ability to inhibit the enzymatic activity of various protein kinases. This was achieved by measurement of incorporation of radioactive phosphate from ATP into appropriate polypeptide substrates. Recombinant protein kinases and kinase complexes were produced or obtained commercially. Assays were performed using 96-well plates and appropriate assay buffers (typically 25 mM β-glycerophosphate, 20 mM MOPS, 5 MM EGTA, 1 mM DTT, 1 mM Na3VO3, pH 7.4), into which were added 2-4 μg of active enzyme with appropriate substrates. The reactions were initiated by addition of Mg/ATP mix (15 mM MgCl2+100 μM ATP with 30-50 kBq per well of [γ-^32P]-ATP) and mixtures incubated as required at 30° C. Reactions were stopped on ice, followed by filtration through p81 filterplates or GF/C filterplates (Whatman Polyfiltronics, Kent, UK). After washing 3 times with 75 mM aq orthophosphoric acid, plates were dried, scintillant added and incorporated radioactivity measured in a scintillation counter (TopCount, Packard Instruments, Pangbourne, Berks, UK). Compounds for kinase assay were made up as 10 mM stocks in DMSO and diluted into 10% DMSO in assay buffer.
CDK4/cyclin D1, sequence (P11802 whole entry, species assumed): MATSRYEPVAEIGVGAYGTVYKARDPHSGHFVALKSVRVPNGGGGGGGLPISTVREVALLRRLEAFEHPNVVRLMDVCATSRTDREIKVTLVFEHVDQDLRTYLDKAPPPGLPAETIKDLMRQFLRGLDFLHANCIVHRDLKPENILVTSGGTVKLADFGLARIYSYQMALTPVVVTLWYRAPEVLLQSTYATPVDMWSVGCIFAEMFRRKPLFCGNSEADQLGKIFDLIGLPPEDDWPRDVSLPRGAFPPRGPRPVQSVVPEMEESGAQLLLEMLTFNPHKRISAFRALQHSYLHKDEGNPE
CDK4/cyclin D1, sequence (P24385 whole entry partner, species assumed): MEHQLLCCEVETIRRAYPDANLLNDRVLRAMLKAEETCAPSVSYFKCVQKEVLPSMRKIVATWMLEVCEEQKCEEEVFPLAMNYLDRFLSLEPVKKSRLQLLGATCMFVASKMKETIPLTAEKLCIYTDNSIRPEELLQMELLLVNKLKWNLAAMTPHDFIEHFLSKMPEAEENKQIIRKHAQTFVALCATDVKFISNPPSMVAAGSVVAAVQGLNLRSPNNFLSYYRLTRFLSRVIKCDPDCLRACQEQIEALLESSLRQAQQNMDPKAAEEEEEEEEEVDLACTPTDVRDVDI

For experiment [2], the system named is transformed human cell lines (A549, HT29, Saos-2). The experiment in a line: 72-h MTT cytotoxicity assay, average of cell lines. Type of experiment: cell-based. The settings on record: read-out: 72-h MTT IC50 Average, average of A549, HT29, Saos-2. How it is done: (§2) The compounds from the examples above were subjected to a standard cellular proliferation assay using human tumour cell lines obtained from the ATCC (American Type Culture Collection, 10801 University Boulevard, Manessas, Va. 20110-2209, USA). Standard 72-h MTT (thiazolyl blue; 3-[4,5-dimethylthiazol-2-yl]-2,5-diphenyltetrazolium bromide) assays were performed. In short: cells were seeded into 96-well plates according to doubling time and incubated overnight at 37° C. Test compounds were made up in DMSO and a 1/3 dilution series prepared in 100 μL cell media, added to cells (in triplicates) and incubated for 72 ho at 37° C. MTT was made up as a stock of 5 mg/mL in cell media and filter-sterilised. Media was removed from cells followed by a wash with 200 μL PBS. MTT solution was then added at 20 μL per well and incubated in the dark at 37° C. for 4 h. MTT solution was removed and cells again washed with 200 μL PBS. MTT dye was solubilised with 200 μL per well of DMSO with agitation.

The subject of experiment [3] is HT29. In words: 72-h MTT cytotoxicity assay, HT29. Type of experiment: cell-based. The settings on record: Homo sapiens, HT-29, read-out: 72-h MTT IC50 HT29, HT29 cell line. How it is done:
as §2

Experiment [4] has as its target CDK2/cyclin E (Homo sapiens, UniProt P24941). In words: Kinase assay, radioactive phosphate incorporation, CDK2/cyclin E. The format is biochemical. The settings on record: 100 μM ATP, 30° C.; read-out: Kinase inhibition IC50 CDK2/cyclin E. The protocol: as §1
The target of experiment [5] is CDK7/cyclin H (Homo sapiens, UniProt P50613). The experiment in a line: Kinase assay, radioactive phosphate incorporation, CDK7/cyclin H. The format is biochemical. The settings on record: 100 μM ATP, 30° C.; read-out: Kinase inhibition IC50 CDK7/cyclin H. How it is done: as §1
CDK7/cyclin H, sequence (P50613 whole entry, species assumed): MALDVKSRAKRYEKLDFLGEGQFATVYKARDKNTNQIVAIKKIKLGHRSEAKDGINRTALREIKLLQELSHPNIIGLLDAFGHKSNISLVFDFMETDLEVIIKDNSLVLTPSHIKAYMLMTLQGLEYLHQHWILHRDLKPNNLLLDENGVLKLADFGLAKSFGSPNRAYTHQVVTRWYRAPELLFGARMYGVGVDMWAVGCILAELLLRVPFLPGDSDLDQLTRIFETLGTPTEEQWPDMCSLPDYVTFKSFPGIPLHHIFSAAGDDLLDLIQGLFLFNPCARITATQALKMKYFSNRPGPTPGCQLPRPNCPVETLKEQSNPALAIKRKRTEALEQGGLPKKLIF
CDK7/cyclin H, sequence (P51946 whole entry partner, species assumed): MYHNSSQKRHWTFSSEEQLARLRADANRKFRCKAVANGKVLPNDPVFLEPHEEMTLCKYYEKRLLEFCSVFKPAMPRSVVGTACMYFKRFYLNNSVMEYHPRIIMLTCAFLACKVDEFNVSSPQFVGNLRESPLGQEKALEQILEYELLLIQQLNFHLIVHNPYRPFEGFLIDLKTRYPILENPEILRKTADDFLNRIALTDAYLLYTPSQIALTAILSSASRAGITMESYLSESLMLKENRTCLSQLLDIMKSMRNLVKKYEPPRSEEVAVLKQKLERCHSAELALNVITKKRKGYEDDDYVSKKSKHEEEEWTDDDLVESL
Experiment [6] deals with A549. In words: 72-h MTT cytotoxicity assay, A549. The format is cell-based. The settings on record: Homo sapiens, read-out: 72-h MTT IC50 A549, A549 cell line. How it is done:
as §2
(In general: Tetrazolium assays rely on reduction of a dye to a coloured formazan, in cell work by metabolically active cells.)

In experiment [7] the test system is Saos-2. The experiment in a line: 72-h MTT cytotoxicity assay, Saos-2. Type of experiment: cell-based. The settings on record: Homo sapiens, read-out: 72-h MTT IC50 Saos-2, Saos-2 cell line. How it is done:
as §2

The target of experiment [8] is GSK3β (Homo sapiens, UniProt P49841). The experiment in a line: Kinase assay, radioactive phosphate incorporation, GSK3β. The format is biochemical. The settings on record: 100 μM ATP, 30° C.; read-out: Kinase inhibition IC50 GSK3β. The protocol:
as §1

The target in experiment [9] is CDK9/cyclin T1 (Homo sapiens, UniProt P50750). In words: Kinase assay, radioactive phosphate incorporation, CDK9/cyclin T1. Type of experiment: biochemical. The settings on record: 100 μM ATP, 30° C.; read-out: Kinase inhibition IC50 CDK9/cyclin T1. How it is done:
as §1

Experiment [10] addresses CDK2/cyclin A (Homo sapiens, UniProt P24941). In words: Kinase assay, radioactive phosphate incorporation, CDK2/cyclin A. Type of experiment: biochemical. The settings on record: 100 μM ATP, 30° C.; read-out: Kinase inhibition IC50 CDK2/cyclin A. How it is done: as §1

Each structure is given as a SMILES string.

GSK3β, sequence (P49841 whole entry, species assumed): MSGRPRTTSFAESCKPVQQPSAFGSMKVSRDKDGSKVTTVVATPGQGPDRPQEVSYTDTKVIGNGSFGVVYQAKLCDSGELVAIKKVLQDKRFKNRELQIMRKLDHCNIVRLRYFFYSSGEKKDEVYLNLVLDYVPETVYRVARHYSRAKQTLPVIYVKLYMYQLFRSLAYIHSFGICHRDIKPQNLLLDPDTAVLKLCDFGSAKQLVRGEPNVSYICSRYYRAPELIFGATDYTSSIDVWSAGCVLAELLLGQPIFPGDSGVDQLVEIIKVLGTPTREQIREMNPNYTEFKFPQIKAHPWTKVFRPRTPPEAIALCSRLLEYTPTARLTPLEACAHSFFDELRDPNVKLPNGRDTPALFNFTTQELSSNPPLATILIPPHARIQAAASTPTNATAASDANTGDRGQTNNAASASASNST
CDK9/cyclin T1, sequence (P50750 whole entry, species assumed): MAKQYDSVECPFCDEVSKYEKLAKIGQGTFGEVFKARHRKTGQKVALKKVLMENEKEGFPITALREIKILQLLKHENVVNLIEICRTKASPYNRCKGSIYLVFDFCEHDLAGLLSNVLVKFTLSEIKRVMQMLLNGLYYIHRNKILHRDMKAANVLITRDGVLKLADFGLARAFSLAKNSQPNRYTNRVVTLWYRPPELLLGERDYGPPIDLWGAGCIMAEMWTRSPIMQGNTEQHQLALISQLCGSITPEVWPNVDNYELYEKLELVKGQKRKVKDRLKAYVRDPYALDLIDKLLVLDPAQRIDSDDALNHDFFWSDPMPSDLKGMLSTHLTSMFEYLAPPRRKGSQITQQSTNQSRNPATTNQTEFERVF
CDK9/cyclin T1, sequence (O60563 whole entry partner, species assumed): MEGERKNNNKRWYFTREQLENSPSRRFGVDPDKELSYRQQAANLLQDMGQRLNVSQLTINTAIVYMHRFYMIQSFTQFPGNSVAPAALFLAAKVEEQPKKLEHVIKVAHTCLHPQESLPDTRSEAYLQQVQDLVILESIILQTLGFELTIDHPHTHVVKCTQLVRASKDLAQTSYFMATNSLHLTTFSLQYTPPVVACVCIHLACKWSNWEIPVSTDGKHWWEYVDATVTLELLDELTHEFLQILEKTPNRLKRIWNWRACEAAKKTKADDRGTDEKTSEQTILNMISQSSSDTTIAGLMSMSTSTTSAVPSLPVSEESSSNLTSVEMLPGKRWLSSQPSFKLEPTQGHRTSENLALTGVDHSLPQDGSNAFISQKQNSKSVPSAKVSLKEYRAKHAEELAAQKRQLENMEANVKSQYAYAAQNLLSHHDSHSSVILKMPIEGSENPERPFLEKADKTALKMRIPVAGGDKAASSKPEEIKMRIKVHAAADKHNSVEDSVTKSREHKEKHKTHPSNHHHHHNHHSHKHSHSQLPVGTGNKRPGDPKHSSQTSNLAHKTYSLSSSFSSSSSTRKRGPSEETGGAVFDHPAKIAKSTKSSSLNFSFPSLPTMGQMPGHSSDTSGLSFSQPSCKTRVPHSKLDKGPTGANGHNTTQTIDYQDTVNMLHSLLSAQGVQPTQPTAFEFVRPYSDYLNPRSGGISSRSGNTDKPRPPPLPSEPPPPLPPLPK

In the case of `CN(C)c1ccc(Nc2nccc(-c3cccc(Cn4cncn4)c3)n2)cc1` [Compound 43, N,N-Dimethyl-N′-[4-(3-[1,2,4]triazol-1-ylmethyl-phenyl)-pyrimidin-2-yl]-benzene-1,4-diamine], the IC50 in experiment [1] turned out to be 1.9 µM; in [2], 17.9 ± 11.8 µM; in [3], 7.8 µM; in experiment [4], 3.7 µM; in experiment [5], 1.4 µM; in experiment [6], 14.9 µM. Besides, the IC50 in experiment [7] was found to be 30.9 µM; in experiment [8] it was 0.19 µM; in experiment [9], 0.53 µM.

In the case of `c1cc(Cn2cncn2)cc(-c2ccnc(Nc3ccc(N4CCOCC4)cc3)n2)c1` [Compound 32, (4-Morpholin-4-yl-phenyl)-[4-(3-[1,2,4]triazol-1-ylmethyl-phenyl)-pyrimidin-2-yl]-amine], the IC50 in experiment [1] was found to be 2.2 µM; in experiment [2], 22 ± 17.2 µM; in experiment [3], 6.1 µM; in experiment [4], 4.4 µM; in experiment [5] it was 4 µM; in experiment [6], 19.7 µM. The results for the IC50 in experiment [7], in experiment [8] and in experiment [9] were 40.3 µM, 0.37 µM and 0.42 µM, respectively.

As to `COc1ccc(Nc2nccc(-c3cccc(Cn4cncn4)c3)n2)cn1` [Compound 50, (6-Methoxy-pyridin-3-yl)-[4-(3-[1,2,4]triazol-1-ylmethyl-phenyl)-pyrimidin-2-yl]-amine], the IC50 in experiment [1] was 9.4 µM; in [2], 20 ± 12 µM; in experiment [3], 11.9 µM; in experiment [4], 1.8 µM; in [5] it was 0.65 µM; in experiment [6], 14.3 µM. The IC50 was found to be 33.8 µM in experiment [7], 0.084 µM in experiment [8] and 0.044 µM in [9].

For the compound `COc1ccc(Nc2nccc(-c3cccc(C#N)c3)n2)cn1` [Compound 51, 3-[2-(6-Methoxy-pyridin-3-ylamino)-pyrimidin-4-yl]-benzonitrile], the IC50 was determined as 37.7 ± 28.4 µM in experiment [2]; 10.3 µM in [3]; 7 µM in experiment [4]; 28 µM in [5]; 35.7 µM in experiment [6]; 67 µM in experiment [7]. In addition, the IC50 came out at 0.37 µM in experiment [8] and 3 µM in experiment [9].

As for `COc1ccc(OC)c(-c2ccnc(Nc3ccc(O)cc3)n2)c1` [Compound 45, 4-[4-(2,5-Dimethoxy-phenyl)-pyrimidin-2-ylamino]-phenol], the IC50 in experiment [1] was found to be 28 µM; in [2], 17.1 ± 8.9 µM; in experiment [3] it was 8.1 µM; in [4] it was 5.8 µM; in [5], 16 µM; in [6], 25.9 µM. Besides, the IC50 in experiment [7] was found to be 17.4 µM; in experiment [8], 3.6 µM; in experiment [9], 25 µM.

Take `COc1ccc(OC)c(-c2ccnc(Nc3ccc(OC)nc3)n2)c1` [Compound 52, [4-(2,5-Dimethoxy-phenyl)-pyrimidin-2-yl]-(6-methoxy-pyridin-3-yl)-amine]: the IC50 in experiment [2] was 15.4 ± 4.9 µM; in experiment [3], 10.8 µM; in experiment [6] it was 20.5 µM; in experiment [7], 14.9 µM; in experiment [9], 16 µM.

As to `COc1ccc(OC)c(-c2ccnc(Nc3cccc([N+](=O)[O-])c3)n2)c1` [Compound 44, [4-(2,5-Dimethoxy-phenyl)-pyrimidin-2-yl]-(3-nitro-phenyl)-amine], the IC50 came to 1.3 ± 0.3 µM in [2]; 1.3 µM in experiment [3]; 17 µM in experiment [4]; 1.5 µM in [6]; 1 µM in [7]; 0.49 µM in experiment [8].

As for `OCC1CCCCN1Cc1cccc(-c2ccnc(Nc3ccc(N4CCOCC4)cc3)n2)c1` (stereo not shown) [Compound 101, (1-{3-[2-(4-Morpholin-4-yl-phenylamino)-pyrimidin-4-yl]-benzyl}-piperidin-2-yl)-methanol], the IC50 in [2] was 16.1 ± 9.6 µM; in experiment [3], 6 µM; in [5] it was 1.6 µM; in experiment [6], 17.3 µM; in experiment [7] it was 25 µM; in [9], 2.9 µM.

On to `COc1ccc(-c2ccnc(Nc3cccc([N+](=O)[O-])c3)n2)cc1` [Compound 94, [4-(4-Methoxy-phenyl)-pyrimidin-2-yl]-(3-nitro-phenyl)-amine], for which the IC50 in experiment [4] is 0.3 µM; in [5], 0.99 µM; in [8], 0.03 µM; in experiment [9] it was 0.02 µM; in [10] it was 0.93 µM.

Turning to `c1ccc(Nc2nccc(-c3ccccc3)n2)cc1` [Compound 37, Phenyl-(4-phenyl-pyrimidin-2-yl)-amine], the IC50 came to 32.6 ± 24.5 µM in [2]; 15.2 µM in experiment [3]; 18 µM in [4]; 22 µM in [6]; 60.7 µM in experiment [7].

On to `O=[N+]([O-])c1cccc(Nc2nccc(-c3ccc(Cl)c(Cn4cncn4)c3)n2)c1` [Compound 47, [4-(4-Chloro-3-[1,2,4]triazol-1-ylmethyl-phenyl)-pyrimidin-2-yl]-(3-nitro-phenyl)-amine], for which the IC50 in [1] is 28 µM; in experiment [4] it was 1.4 µM; in experiment [5], 20 µM; in [8], 0.13 µM; in experiment [9], 1.3 µM.

`COc1ccc(Nc2nccc(-c3cccc(CN4CCCCC4CO)c3)n2)cn1` (stereo not shown) [Compound 102, (1-{3-[2-(6-Methoxy-pyridin-3-ylamino)-pyrimidin-4-yl]-benzyl}-piperidin-2-yl)-methanol]: the IC50 in experiment [2] was 17.2 ± 6.2 µM; in experiment [3] it was 11.1 µM; in experiment [5], 1.4 µM; in experiment [6] it was 17 µM; in [7], 23.4 µM; in experiment [9], 0.49 µM.

For the compound `CN(Cc1cccc(-c2ccnc(Nc3cccc([N+](=O)[O-])c3)n2)c1)S(=O)(=O)c1cccc([N+](=O)[O-])c1` [Compound 85, N-Methyl-3-nitro-N-{3-[2-(3-nitro-phenylamino)-pyrimidin-4-yl]-benzyl}-benzenesulfonamide], the IC50 in experiment [2] was 44 ± 33.3 µM; in experiment [3], 10.4 µM; in experiment [6], 76.9 µM; in experiment [7], 44.6 µM; in experiment [9], 0.4 µM.

Consider `OCC1CCCCN1Cc1cccc(-c2ccnc(Nc3cccc(O)c3)n2)c1` (stereo not shown) [Compound 103, 3-{4-[3-(2-Hydroxymethyl-piperidin-1-ylmethyl)-phenyl]-pyrimidin-2-ylamino}-phenol], for which the IC50 worked out at 6.5 ± 0.8 µM in experiment [2]; 7 µM in experiment [3]; 0.64 µM in experiment [5]; 6.9 µM in [6]; 5.6 µM in experiment [7]; 0.14 µM in experiment [9].

Turning to `O=[N+]([O-])c1cccc(Nc2nccc(-c3cccc(Cn4cncn4)c3)n2)c1` [Compound 30, (3-Nitro-phenyl)-[4-(3-[1,2,4]triazol-1-ylmethyl-phenyl)-pyrimidin-2-yl]-amine], the IC50 in experiment [2] was determined as 6.5 ± 1.8 µM; in experiment [3] it was 7.1 µM; in [4], 0.04 µM; in [5] it was 0.57 µM; in experiment [6], 8 µM; in [7] it was 4.4 µM. Further, the IC50 in [8] is 0.019 µM; in experiment [9] it was 0.002 µM.

On to `O=[N+]([O-])c1cccc(-c2ccnc(Nc3ccc(O)cc3)n2)c1` [Compound 1, 4-[4-(3-Nitro-phenyl)-pyrimidin-2-ylamino]-phenol], for which the IC50 in experiment [2] amounted to 27.2 ± 15.3 µM; in experiment [3], 22.9 µM; in experiment [4] it was 1.6 µM; in experiment [6] it was 14.5 µM; in experiment [7], 44.2 µM.
